Consider one molecule from patent US11730703B2, “Nanoparticles for treatment of posterior segment ocular diseases and conditions” (UNIVERSITY OF SOUTH FLORIDA, priority 2017, dated 2023).

A short description of data set [1]: In vitro drug release (dialysis membrane tubing, PBS). It is filed as physicochemical. The settings on record: FIG. 5. As for the experimental part:
(iii) In vitro Drug Release: The rate of TA release from the NPs was measured by adapting a previously reported method. 40 Dialysis membrane tubing, MWCO 10 000 Da. (Spectrum Laboratories, Rancho Dominguez, Calif.) was soaked in deionized H2O overnight. 1 ml of the NP suspension was added to the dialysis membrane tubing after being briefly sonicated and was placed into 100 ml of PBS covered and stirring at 100 rpm at 37° C. 1 mL samples were removed at predetermined intervals over 10 days and replaced with fresh PBS. Samples were analyzed using UV spectroscopy at a wavelength of 240 nm (lmax) and compared to standard dilutions of TA in PBS (r^2=0.989) to determine the percentage of drug released over 10 days.
500 μL of 1 mg/mL DIG sol and 500 μL of DIG NPs in (cellulose) dialysis membrane tubing
Samples were taken in 750 μL increments and the respective amount of PBS was re-added

Data set [2] concerns ARPE-19 cells. Description: Cytotoxicity, MTT assay. The format is cell-based, human. The settings on record: FIG. 6. Here is the method: (iv) Cytotoxicity: The cytotoxicity of the TA Nanoparticles was assessed in ARPE-19 cells (cells of a human retinal pigment epithelial cell line) by the 3-(4,5-dimethylthiazol-2-yl)-2,5-diphenyltetrazolium bromide salt (MTT) assay. Briefly, cells were seeded in 24-well plates at a density of 5×10^4 cells/ml for 24 h to achieve confluency before treatment. […] Cell culture media were aspirated, and […] of MTT reagent solution (1 mg/ml) was added to each well. Cells were incubated at 37° C. and 5% CO2 for 4 h, after which the MTT reagent solution was aspirated and 1 mL of DMSO was added to each well. Plates were allowed to shake gently for 10 min before being read by Synergy H4 plate reader (Biotek Industries, Inc., Winooski, Vt.) at absorbance of 570 nm.
Media was removed and cells were washed with 500 μL of HBSS prior to treatment.
Cell Treatments • 3 control wells with 500 μL Experimental Media only • 3 wells with DIG sol at 0.5 μM and 1 μM concentrations: (0.5 μM: 9.76 μL DIG sol+490.24 μL Exp. Media) • (1 μM: 19.52 μL DIG sol+480.48 μL Exp. Media) • 3 wells with DIG NPs at 0.5 μM and 1 μM concentrations: (0.5 μM: 1.012 μL DIG NPs+[…] Exp. Media) • (1 μM: 2.024 μL DIG NPs+497.97 μL Exp. Media)
MTT Cell treatments: same as above w/o CoCl2 step
Prepare MTT reagent: 0.5 mg/mL (in basal media) and cover with aluminum foil
Remove media from each well and wash with HBSS […]
For orientation: Tetrazolium assays rely on reduction of a dye to a coloured formazan, in cell work by metabolically active cells.

As to `C[C@H]1O[C@@H](O[C@H]2[C@@H](O)C[C@H](O[C@H]3[C@@H](O)C[C@H](O[C@H]4CC[C@@]5(C)[C@H](CC[C@@H]6[C@@H]5C[C@@H](O)[C@]5(C)[C@@H](C7=CC(=O)OC7)CC[C@]65O)C4)O[C@@H]3C)O[C@@H]2C)C[C@H](O)[C@@H]1O` [digoxin], the “Drug release (in words)” value in data set [1] is given as “sustained therapeutic release”. For the same molecule, the “Cell toxicity (in words)” value in data set [2] is “relatively low cell toxicity”.
